Experimental data as given in PubChem BioAssay (NCI).
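A five-concentration, 48-hour dose response in 96-well plates underlies each endpoint, interpolated linearly between surrounding concentrations. At the GI50, growth is halved. TGI marks complete inhibition of growth.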

Columns and labels:
Test in all cases: DTP human tumour cell line panel, 48 h
[1] = tested on: PC-3 prostate
[2] = tested on: NCI-H522 lung
[3] = tested on: NCI-H226 lung
[4] = tested on: HL-60(TB) leukemia
[5] = tested on: UACC-257 melanoma
[6] = tested on: SNB-19 CNS
[7] = tested on: HCT-15 colon
[8] = tested on: OVCAR-3 ovarian
[9] = tested on: OVCAR-5 ovarian
[10] = tested on: RPMI-8226 leukemia

Row | Compound | GI50 [1] [µM] | TGI [1] [µM] | GI50 [2] [µM] | TGI [2] [µM] | GI50 [3] [µM] | TGI [3] [µM] | GI50 [4] [µM] | TGI [4] [µM] | GI50 [5] [µM] | TGI [5] [µM] | GI50 [6] [µM] | TGI [6] [µM] | GI50 [7] [µM] | TGI [7] [µM] | GI50 [8] [µM] | TGI [8] [µM] | GI50 [9] [µM] | TGI [9] [µM] | GI50 [10] [µM] | TGI [10] [µM]
1 | O=C1/C(=C\c2ccc(Cl)cc2)CN(C(=S)Nc2ccccc2)C/C1=C\c1ccc(Cl)cc1 | 0.371 | 2.09 | 1.82 | 3.84 | 1.64 | 4.58 | 1.62 | 7.85 | 1.83 | 3.78 | 0.661 | 1.95 | 0.283 | 3.27 | 0.437 | 1.49 | 1.47 | 3.49 | 0.136 | 0.646
2 | CCOC(=O)c1cnc(SCc2ccc(Cl)c(Cl)c2)nc1N1CC1 | 2.74 | 15.2 | 2.23 | 6.88 | 5.01 | 18.9 | 1.72 | 9.13 | 4.78 | 19.8 | 6.93 | 23.8 | 1.31 | 14.4 | 2.63 | 7 | 4.67 | 19.4 | 2.54 | 9.64
3 | O/N=C1\CCc2cc(-c3nc(C4CCNCC4)[nH]c3-c3ccncc3)ccc21 | > 25 | > 25 | > 25 | > 25 | > 25 | > 25 | > 25 | > 25 | 5.17 | > 25 | > 25 | > 25 | > 25 | > 25 | > 25 | > 25 | > 25 | > 25 | > 25 | > 25
4 | O=C(CCCc1c[nH]c2ccccc12)NC1CC(=O)c2c(Br)sc(Br)c21 (stereo unspecified) | 21 | 75.7 | 21.1 | 52.2 | 19.6 | 35.5 | 5.04 | 67.1 | 19.2 | 48.1 | 14.3 | 29 | 3.51 | 10.9 | 10.4 | 29.3 | 16 | 31.7 | 4.37 | > 100
5 | N#C/C(=C\c1c(-c2ccccc2)[nH]c2ccccc12)C(=O)c1ccc(Cl)cc1 | 3.42 | > 70.3 | 2.89 | > 30 | 7.5 | 47.2 | 0.385 | 3.17 | 30.2 | > 87.3 | 3.07 | 20.2 | 1.38 | > 100 | 1.52 | 4.65 | 8.58 | 46.9 | 1.32 | 20
6 | Nc1cccc2c1C(=O)N(C1CCC(=O)NC1=O)C2=O (stereo unspecified) | > 100 | > 100 | > 100 | > 100 | > 100 | > 100 | > 100 | > 100 | > 100 | > 100 | > 100 | > 100 | > 100 | > 100 | > 100 | > 100 | > 100 | > 100 | > 100 | > 100
7 | CCCCCCCCCCCCc1ccc(C(=O)/C=C/C(=O)O)cc1 | 8.12 | 26.6 | 1.98 | 4.73 | 1.59 | 3.14 | 1.56 | 3.58 | 3.79 | 15.2 | 7.07 | 22 | 1.71 | 3.45 | 1.91 | 3.47 | 10.3 | 23.1 | 2.11 | 6.75
8 | Cc1cc2c(C)c3cc(C)c(N)cc3nc2cc1N | 1.11 | 7.06 | 0.527 | 2.02 | 0.864 | 4.56 | 3 | 10.1 | 2.8 | 9.96 | 0.685 | 10.2 | 1.43 | 10.6 | 1.18 | 5.35 | 0.884 | 5.34 | 1.33 | 5.92
9 | COc1ccc(N(C)c2nc(C)nc3ccccc23)cc1 | < 0.01 | 36.8 | < 0.01 | < 0.01 | < 0.01 | 0.534 | < 0.01 | < 0.01 | 11.3 | 27 | < 0.01 | > 100 | < 0.01 | > 100 | < 0.01 | < 0.01 | < 0.01 | > 100 | < 0.01 | 18
10 | O=C1c2ccccc2-c2c1c1ccccc1c(=O)n2CCO | – | > 100 | – | > 100 | – | > 38.1 | – | 7.29 | – | > 100 | – | > 100 | – | > 100 | – | > 100 | – | > 100 | – | > 100
11 | COc1cccc(NC(=O)c2sc3nc4c(cc3c2N)CCCC4)c1 | 0.504 | > 100 | 0.806 | > 100 | 2.6 | 43.8 | 0.228 | 0.765 | 0.727 | > 100 | 0.813 | 53.5 | 0.387 | > 100 | 0.329 | 2.38 | 3.31 | > 100 | 0.396 | 78.3
12 | C1=CN2C[n+]3cccc(OCc4ccccc4)c3N=C2C(OCc2ccccc2)=C1 | – | > 100 | – | 15.8 | – | > 100 | – | 0.849 | – | 27.5 | – | 27.2 | – | > 100 | – | 25 | – | > 100 | – | 9.26
13 | O=S(=O)(c1ccc(NC(=S)N/N=C/c2ccccc2O)cc1)N1CCCCC1 | – | 21.1 | – | > 57.5 | – | 0.803 | 0.351 | 7.12 | – | 14.5 | – | > 100 | – | 18.4 | – | 6.34 | – | 18.3 | – | 8.17
